The term IC50 denotes the concentration that inhibits the measured activity by half. A lower IC50 goes with greater potency. The term Kd denotes the free concentration of one partner at which half of the binding sites on the other are occupied at equilibrium, for simple one-to-one binding.

IC50 and Kd data for two compounds are collected here from PMC3759162 (Cellular and molecular life sciences : CMLS, 2012).

The target in assay [1] is T1, NSBP-1 (D2096.8; nematode sterol-binding protein 1) (Caenorhabditis elegans, UniProt Q19007).
T1 sequence (Q19007 1-316): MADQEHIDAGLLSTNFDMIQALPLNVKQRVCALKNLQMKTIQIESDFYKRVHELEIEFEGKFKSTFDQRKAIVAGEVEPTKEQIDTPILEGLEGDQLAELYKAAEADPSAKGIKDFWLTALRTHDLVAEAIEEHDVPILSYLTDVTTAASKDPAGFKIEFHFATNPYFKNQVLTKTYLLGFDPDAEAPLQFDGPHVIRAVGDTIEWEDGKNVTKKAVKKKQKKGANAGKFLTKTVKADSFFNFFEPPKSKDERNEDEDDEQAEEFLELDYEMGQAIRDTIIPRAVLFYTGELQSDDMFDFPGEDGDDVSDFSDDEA
Description: competition with […] [3H]cholesterol on GST fusion protein.

The target of assay [2] is T1, NSBP-1 (D2096.8; nematode sterol-binding protein 1).

Structures are written as SMILES.

Regarding `C[C@H](CCCC(C)(C)O)[C@H]1CC[C@H]2[C@@H]3CC=C4C[C@@H](O)CC[C@]4(C)[C@H]3CC[C@]12C` [25-hydroxycholesterol], the IC50 in assay [1] was roughly 630 nM.
In assay [2], `CC(C)CCC[C@@H](C)[C@H]1CC[C@H]2[C@@H]3CC=C4C[C@@H](O)CC[C@]4(C)[C@H]3CC[C@]12C` [cholesterol] gave a Kd of 87.5 ± 27.7 nM. In assay [1], this compound returned a half-maximal inhibitory concentration (IC50) of 40 ± 5.6 nM.
